In series [1] the target is T1, WT CaFADS (Corynebacterium ammoniagenes, UniProt Q59263).
T1 construct: made in house; host or cells: Escherichia coli
Description: Isothermal titration calorimetry (ITC) of ligand binding at the FMNAT site. As to conditions: 20 mM PIPES. (In general: ITC needs no label: the signal is the heat of the interaction.)

For series [2], the target named is T2, L98K CaFADS (Corynebacterium ammoniagenes, UniProt Q59263, L98K).
T2 construct: made in house; host or cells: E. coli BL21(DE3)
Described as above. The following applies: 20 mM PIPES, pH 7.0, no MgCl2.

Series [3] has as its target T3, L98A CaFADS (Corynebacterium ammoniagenes, UniProt Q59263, L98A).
T3 construct: made in house; host or cells: E. coli BL21(DE3)
Described as above. As to conditions: 20 mM PIPES.

Series [4] deals with T4, P56W CaFADS (Corynebacterium ammoniagenes, UniProt Q59263, P56W).
T4 construct: made in house; host or cells: E. coli BL21(DE3)
Described as above. The following applies: for -TΔS / ΔH / ΔG: P56W CaFADS, 20 mM PIPES.

Series [5] addresses T5, P56A/P58A CaFADS (Corynebacterium ammoniagenes, UniProt Q59263, P56A/P58A).
T5 construct: made in house; host or cells: E. coli BL21(DE3)
The series is described as above. The following applies: 20 mM PIPES.

For series [6], the target named is T6, L98W CaFADS (Corynebacterium ammoniagenes, UniProt Q59263, L98W).
T6 construct: made in house; host or cells: E. coli BL21(DE3)
The description is as above. The following applies: 20 mM PIPES.

Series [7] concerns the target T7, P58W CaFADS (Corynebacterium ammoniagenes, UniProt Q59263, P58W).
T7 construct: made in house; host or cells: E. coli BL21(DE3)
Described as above. The following applies: 20 mM PIPES.

Series [8] deals with T1, WT CaFADS. As to conditions: cited from earlier work.
The test system of series [9] is CaFADS variants. Briefly: Difference spectroscopy of flavin binding at the FMNAT site. Also on record: species or system Corynebacterium ammoniagenes. As to conditions: all variants, 20 mM PIPES, 10 mM MgCl2, pH 7.0, 25 °C. The procedure:
Spectroscopic measurements were carried out following previously established conditions and protocols. UV–visible absorption spectra were recorded in a Cary 100 spectrophotometer (Agilent Technologies, Santa Clara, CA, USA). Experimental extinction coefficients at 279 nm (ε^279) for each variant were determined based on the Gill and von Hippel method. In short, the UV–visible absorbance spectrum of the protein was recorded. Then samples were denatured with guanidinium hydrochloride (6 M in 20 mM sodium phosphate, pH 6.5). Then, the absorbance spectrum of the denatured sample was recorded and its concentration was calculated considering the theoretical extinction coefficient determined using the amino acid sequence. This concentration, taking into account the protein dilution in the denaturation process, was then used to determine ε^279 at the protein maximum by using the native protein spectrum before denaturation. Difference spectroscopy measurements were carried out in 20 mM PIPES, 10 mM MgCl2, pH 7.0, with saturating concentrations of ligands. Circular dichroism (CD) spectra were recorded using a Chirascan spectropolarimeter (Appl. Phot. Ltd., Leatherhead, Surrey, UK) at 25 °C. […]

The subject of series [10] is CaFADS variants. Briefly: Qualitative detection of RFK, FMNAT and FADpp activities by TLC. The series is classed as biochemical, Corynebacterium ammoniagenes. The following applies: all variants, 200 nM enzyme, 50 μM flavin, 0.2 mM ATP, 10 mM MgCl2, pH 7.0, 30 min and 2 h. The procedure: RFK and FMNAT activities were qualitatively assayed by the incubation of enzymes with substrates and separation of flavins (substrates and products) from reaction mixtures using TLC on Silica Gel SIL-G-25 plates (20 × 20 cm, thickness 0.25 mm) as previously described. […] Reactions were stopped by boiling the preparations for 5 min. Flavin spots were visualized under UV light.

In series [11] the test system is Cc1cc2nc3c(=O)[nH]c(=O)nc-3n(C[C@H](O)[C@H](O)[C@H](O)CO)c2cc1C. Briefly: purified protein, by the assay type. The series is classed as biochemical, Corynebacterium ammoniagenes. The following applies: RF varied, saturating ATP, apparent value, 20 mM PIPES, 0.8 mM MgCl2, pH 7.0, 25 °C. Here is the method:
Reactions were initiated by the addition of ~20 nM of enzyme. After 1 min incubation at 25 °C, the reactions were stopped by boiling the mixtures for 5 min. The composition of flavins in the supernatant was determined using an Alliance HPLC system (Waters, Milford, MA, USA) equipped with a 2707 autosampler and a HSST3 column (4.6 × 150 mm, 3.5 µm, Waters) preceded by a pre-column (4.6 × 20 mm, 3.5 µm, Waters). The chromatography was developed at 1 mL/min with a 6 min isocratic program of methanol 40% (v/v) in 5 mM ammonium acetate (pH 6.0). Detection of flavins was carried out using a 2475 Multi λ fluorescence detector (Waters), excitation wavelength of 470 nm and emission wavelength of 530 nm. […] The flavinic products of the reaction were identified by their retention times and quantified through their corresponding standard curves obtained under the same conditions. Controls containing free flavins in the absence of the enzyme were treated similarly to reaction samples to discard flavin degradation during RFK activity determination. […] In case of inhibition, the experimental data were fitted to a model describing the substrate inhibition of a bi-substrate mechanism. In these situations, errors in apparent Km and kcat (^appKm and ^appkcat) increased with the inhibition constant (Ki) value getting closer to Km^S. Reaction mixtures were evaluated in triplicates, and final results are expressed as the standard error of the fitted value (value ± SE).

Setting [12] is: 10 mM MgCl2, pH 7.0, n.d. = no interaction profile was detected.

Usually kcat stands for the number of substrate molecules converted per active site and unit of time at saturation. For orientation: Km means the substrate concentration at which the rate is half of its maximum.

For the compound `Nc1ncnc2c1ncn2[C@@H]1O[C@H](COP(=O)(O)OP(=O)(O)OP(=O)(O)O)[C@@H](O)[C@H]1O` [ATP, Adenosine 5′-triphosphate], the “-TΔS” value in series [1] (pH 7.0, no MgCl2) is 39 ± 6 kcal/mol; in series [2] it was 33 ± 19 kcal/mol; in series [3] (pH 7.0, no MgCl2) it was 15 ± 2 kcal/mol; in series [4] (pH 7.0, no MgCl2), 11 ± 2 kcal/mol; in [5] (pH 7.0, no MgCl2), -3.6 ± 0.2 kcal/mol; in [6] (pH 7.0, no MgCl2), 26 ± 6 kcal/mol. The “-TΔS” value in series [7] (pH 7.0, no MgCl2) is on record as -3.8 ± 0.1 kcal/mol. The ΔH in [1] (pH 7.0, no MgCl2) is -44 ± 6 kcal/mol; in series [2] it was -39 ± 19 kcal/mol; in series [3] (pH 7.0, no MgCl2), -20 ± 3 kcal/mol; in series [4] (pH 7.0, no MgCl2) it was -16 ± 3 kcal/mol; in series [5] (pH 7.0, no MgCl2) it was -2.8 ± 0.2 kcal/mol; in series [6] (pH 7.0, no MgCl2) it was -32 ± 6 kcal/mol. Also, the ΔH in series [7] (pH 7.0, no MgCl2) is -2.7 ± 0.1 kcal/mol. For the same compound, the ΔG is on record as -5.6 ± 0.2 kcal/mol in series [2]; -5.6 ± 0.1 kcal/mol in series [3] (pH 7.0, no MgCl2); -6.4 ± 0.1 kcal/mol in [5] (pH 7.0, no MgCl2); -6.5 ± 0.1 kcal/mol in series [7] (pH 7.0, no MgCl2). Further, the turnover number (kcat) in series [8] (ATP varied, RF at ~80% of maximum activity, apparent value, 20 mM PIPES, 0.8 mM MgCl2, pH 7.0, 25 °C) is 2.58 ± 0.083 s⁻¹. In series [8] (read-out: Km^ATP, ATP varied, RF at ~80% of maximum activity, 20 mM PIPES, 0.8 mM MgCl2, pH 7.0, 25 °C), the Km was 28 ± 4 µM.

`Cc1cc2nc3c(=O)[nH]c(=O)nc-3n(C[C@H](O)[C@H](O)[C@H](O)COP(=O)(O)OP(=O)(O)OC[C@H]3O[C@@H](n4cnc5c(N)ncnc54)[C@H](O)[C@@H]3O)c2cc1C` [FAD, Riboflavin 5′-adenosine diphosphate]: the “-TΔS” value is 18 ± 1 kcal/mol in series [1] (10 mM MgCl2, pH 7.0); -6.1 ± 0.1 kcal/mol in series [4] (10 mM MgCl2, pH 7.0); -7.4 ± 0.1 kcal/mol in series [5] (10 mM MgCl2, pH 7.0); -6.9 ± 0.1 kcal/mol in series [6] (10 mM MgCl2, pH 7.0); -7.0 ± 0.1 kcal/mol in series [7] (10 mM MgCl2, pH 7.0). For the same compound, the ΔH in [1] (10 mM MgCl2, pH 7.0) was -26 ± 1 kcal/mol; in series [4] (10 mM MgCl2, pH 7.0) it was -0.9 ± 0.1 kcal/mol; in series [5] (10 mM MgCl2, pH 7.0), -0.39 ± 0.1 kcal/mol; in series [6] (10 mM MgCl2, pH 7.0), -0.6 ± 0.1 kcal/mol; in series [7] (10 mM MgCl2, pH 7.0), -0.56 ± 0.02 kcal/mol. The ΔG was -6.9 ± 0.1 kcal/mol in series [4] (10 mM MgCl2, pH 7.0); -7.8 ± 0.1 kcal/mol in [5] (10 mM MgCl2, pH 7.0); -7.4 ± 0.1 kcal/mol in series [6] (10 mM MgCl2, pH 7.0); -7.6 ± 0.1 kcal/mol in [7] (10 mM MgCl2, pH 7.0). For the same compound, in series [9] (saturating FAD), the “difference spectra on titration with FAD” value is given as “hardly produced difference spectra”.

For `Cc1cc2nc3c(=O)[nH]c(=O)nc-3n(C[C@H](O)[C@H](O)[C@H](O)COP(=O)(O)O)c2cc1C` [FMN, Riboflavin 5′-phosphate], the “-TΔS” value in series [1] (10 mM MgCl2, pH 7.0) is on record as 15 ± 1 kcal/mol; in series [3] (setting [12]) it was -7.9 ± 0.1 kcal/mol; in series [4] (10 mM MgCl2, pH 7.0), -6.5 ± 0.1 kcal/mol; in [6] (10 mM MgCl2, pH 7.0), -7.2 ± 0.1 kcal/mol; in series [7] (10 mM MgCl2, pH 7.0) it was -7.3 ± 0.1 kcal/mol. For the same compound, the ΔH is on record as -22 ± 1 kcal/mol in series [1] (10 mM MgCl2, pH 7.0); -1.2 ± 0.1 kcal/mol in series [3] (setting [12]); -1.4 ± 0.1 kcal/mol in series [4] (10 mM MgCl2, pH 7.0); -1.8 ± 0.1 kcal/mol in series [5] (10 mM MgCl2, pH 7.0); -1.5 ± 0.1 kcal/mol in series [6] (10 mM MgCl2, pH 7.0); -1.3 ± 0.1 kcal/mol in series [7] (10 mM MgCl2, pH 7.0). Also, the “FMNAT activity (transformation of FMN into FAD), qualitative” value in series [10] was “none of the variants was neither capable of catalyzing the transformation of FMN into FAD”. Besides, the ΔG is recorded as -9.0 ± 0.1 kcal/mol in [3] (setting [12]); -7.9 ± 0.1 kcal/mol in series [4] (10 mM MgCl2, pH 7.0); -8.8 ± 0.1 kcal/mol in [5] (10 mM MgCl2, pH 7.0); -8.7 ± 0.1 kcal/mol in series [6] (10 mM MgCl2, pH 7.0); -8.6 ± 0.1 kcal/mol in series [7] (10 mM MgCl2, pH 7.0). Further, the “Kd^FMN lower than WT” value in [4] (P56W CaFADS vs WT) was “up to 4 fold”. In addition, the “difference spectra after incubation with FMN” value in [9] (saturating FMN) was “All the variants produced difference spectra”.

As for “L98A CaFADS (Corynebacterium ammoniagenes; L98A)”, the Michaelis constant (Km) in series [11] (other: L98A CaFADS) is on record as 1.5 ± 0.7 µM.

“L98K CaFADS (Corynebacterium ammoniagenes; L98K)”: the Michaelis-Menten constant (Km) in [11] (other: L98K CaFADS) is 4.0 ± 1.1 µM.

For the compound “L98W CaFADS (Corynebacterium ammoniagenes; L98W)”, the Michaelis constant (Km) in [11] (other: L98W CaFADS) came to 1.6 ± 0.6 µM.

With “P56A/P58A CaFADS (Corynebacterium ammoniagenes; P56A/P58A)”, the Km in series [11] (other: P56A/P58A CaFADS) is listed as 0.9 ± 0.4 µM.

As for “P56W CaFADS (Corynebacterium ammoniagenes; P56W)”, the Michaelis-Menten constant (Km) in [11] (other: P56W CaFADS) amounted to 0.4 ± 0.1 µM.

In the case of “P58W CaFADS (Corynebacterium ammoniagenes; P58W)”, the Km in [11] (other: P58W CaFADS) is recorded as 1.3 ± 0.7 µM.

The record behind these values is article PMC6829536 (International Journal of Molecular Sciences, 2019).
